From patent publication US20110245316A1, “PREVENTION OR DELAY OF ONSET OF ORAL MUCOSITIS” (SCICLONE PHARMACEUTICALS, INC., priority 2010, published 2011)

System: oral mucositis in patients receiving chemoradiation for head and neck cancer
Assay: Phase 2 randomized, double-blind, placebo-controlled trial: onset of oral mucositis (WHO OM Scale) in patients receiving CT/RT
Type: in vivo, human
Excerpt: OM is a painful, debilitating, and costly toxicity of different chemoradiotherapy (CT/RT) regimens used to treat head and neck cancer. This trial is a phase 2, randomized, double-blind, dose-ranging, placebo-controlled three-arm study in patients receiving CT/RT for the treatment of head and neck cancer, to assess the safety and tolerability of γ-D-glutamyl-L-tryptophan (SCV-07) as well as its efficacy in delaying the onset of severe OM as assessed by the WHO Oral Mucositis Scale.
The WHO OM Scale is the standard, validated instrument used in clinical trials to measure OM: Grade 0=none; Grade 1=erythema and soreness, no ulcers; Grade 2=ulcers, able to eat a solid diet; Grade 3=ulcers; requires a liquid diet; Grade 4=ulcers, not able to tolerate a solid or liquid diet, requires IV or tube feeding.
59 eligible patients with recently diagnosed, treatment naïve, pathologically-confirmed, non-metastatic squamous cell carcinoma of the oral cavity, oropharynx, hypopharynx or larynx were enrolled and treated with a concomitant regimen of CT/RT consisting of a continuous course of external beam irradiation (IMRT eligible) with a minimum cumulative dose of 50 Gray (Gy) and cisplatin monotherapy administered using standard weekly or tri-weekly dosing regimens (80-100 mg/m^2 administered on Days 0, 21 and 42) or weekly (30-40 mg/m^2). At least two ‘at risk’ intraoral sites were included in the radiation fields and received a cumulative RT dose of at least 50 Gy. Subjects were equally randomized to receive either placebo or one of two doses of γ-D-glutamyl-L-tryptophan (0.02 or 0.1 mg/kg) on each radiation day for up to 7 weeks.
Tables 2-7 summarize the statistics for the Full Analysis Set “FAS” (57 subjects), and the completer population (52 subjects), with respect to delay of onset of severe oral mucositis. Also see FIGS. 1 and 2.
SCV-07 efficacy, dosing and scheduling parameters were assessed in hamster models of acute, fractionated and concomitant chemoradiation (CRT). […] A multicenter, prospective, blinded, randomized trial evaluated SCV-07's ability to alter OM in CRT-treated HNC patients (n=57). Cytokine and gene microarray analyses were performed for samples obtained before and on the last radiation day.

[1] = 0.02 mg/kg vs placebo, Completer Population
[2] = 0.02 mg/kg, Completer Population
[3] = 0.02 mg/kg, Completer Population, at 30-<35 Gy
[4] = 0.02 mg/kg, Completer Population, at 35-<40 Gy
[5] = 0.02 mg/kg, Completer Population, at 40-<45 Gy
[6] = 0.02 mg/kg, Completer Population, at 45-<50 Gy
[7] = 0.02 mg/kg, Completer Population, at 50-<55 Gy
[8] = 0.02 mg/kg, Completer Population, at 55-<60 Gy
[9] = 0.02 mg/kg, Completer Population, at 65-<70 Gy
[10] = 0.02 mg/kg, Completer Population, at ≧70 Gy
[11] = 0.10 mg/kg vs placebo, Completer Population
[12] = 0.10 mg/kg, Completer Population

N[C@H](CCC(=O)N[C@@H](Cc1c[nH]c2ccccc12)C(=O)O)C(=O)O [SCV-07, γ-D-glutamyl-L-tryptophan]
Cox Regression Analysis of Time to Initial Occurrence of Sever OM, Hazard Ratio (95% CI) [1]: 1.884 (0.840, 4.225)
Cox Regression Analysis of Time to Initial Occurrence of Ulcerative OM, Hazard Ratio (95% CI) [1]: 0.737 (0.377, 1.444)
Cox Regression Analysis of Time to Initial Occurrence of Severe OM, Hazard Ratio (95% CI) (0.02 mg/kg vs placebo, FAS population): 1.989 (0.908, 4.357)
Cumulative Dose of RT (Gy) at Initial Onset of Severe OM, Max [2]: 70 Gy
Cumulative Dose of RT (Gy) at Initial Onset of Severe OM, Mean (SD) [2]: 43 (18.7) Gy
Cumulative Dose of RT (Gy) at Initial Onset of Severe OM, Median [2]: 34 Gy
Cumulative Dose of RT (Gy) at Initial Onset of Severe OM, Min [2]: 18 Gy
Cumulative Dose of RT (Gy) at Initial Onset of Ulcerative OM, Max [2]: 62 Gy
Cumulative Dose of RT (Gy) at Initial Onset of Ulcerative OM, Mean (SD) [2]: 24 (12.9) Gy
Cumulative Dose of RT (Gy) at Initial Onset of Ulcerative OM, Median [2]: 22 Gy
Cumulative Dose of RT (Gy) at Initial Onset of Ulcerative OM, Min [2]: 6 Gy
Cumulative Dose of Radiation (Gy) Prior to Initial Occurrence of Severe OM (Delay to Onset of Severe OM), K-M Estimate, Mean (SE) [2]: 42 (4.2) Gy
Cumulative Dose of Radiation (Gy) Prior to Initial Occurrence of Severe OM, K-M Estimate, 25%-75% [2]: 28-62 Gy
Cumulative Dose of Radiation (Gy) Prior to Initial Occurrence of Severe OM, K-M Estimate, Median (95% CI) [2]: 34 (28, 62) Gy
Cumulative Dose of Radiation (Gy) Prior to Initial Occurrence of Ulcerative OM (Delay to Onset of Ulcerative OM), K-M Estimate, Mean (SE) [2]: 24 (3.1) Gy
Cumulative Dose of Radiation (Gy) Prior to Initial Occurrence of Ulcerative OM, K-M Estimate, 25%-75% [2]: 18-30 Gy
Cumulative Dose of Radiation (Gy) Prior to Initial Occurrence of Ulcerative OM, K-M Estimate, Median (95% CI) [2]: 22 (18, 30) Gy
Time (Days) to Initial Occurrence of Sever OM, K-M Estimate, 25%-7% [2]: 18 to 42 days
Time (Days) to Initial Occurrence of Sever OM, K-M Estimate, Mean (SE) [2]: 28 (3.0) Days
Time (Days) to Initial Occurrence of Sever OM, K-M Estimate, Median (95% CI) [2]: 25 (18, 42) Days
Time (Days) to Initial Occurrence of Ulcerative OM, K-M Estimate, 25%-7% [2]: 10 to 20 days
Time (Days) to Initial Occurrence of Ulcerative OM, K-M Estimate, Mean (SE) [2]: 16 (2.2) Days
Time (Days) to Initial Occurrence of Ulcerative OM, K-M Estimate, Median (95% CI) [2]: 15 (10, 20) Days
Cum. Percent of Subjects with Ulcerative OM (WHO > 1) (0.02 mg/kg, Completer Population, at 5-<10 Gy): 6% (1%, 35%)
Cum. Percent of Subjects with Ulcerative OM (WHO > 1) (0.02 mg/kg, Completer Population, at 10-<15 Gy): 18% (6%, 45%)
Cum. Percent of Subjects with Ulcerative OM (WHO > 1) (0.02 mg/kg, Completer Population, at 15-<20 Gy): 41% (22%, 67%)
Cum. Percent of Subjects with Ulcerative OM (WHO > 1) (0.02 mg/kg, Completer Population, at 20-<25 Gy): 59% (37%, 81%)
Cum. Percent of Subjects with Ulcerative OM (WHO > 1) (0.02 mg/kg, Completer Population, at 25-<30 Gy): 76% (55%, 93%)
Cum. Percent of Subjects with Severe OM (WHO > 2) [3]: 53% (32%, 77%)
Cum. Percent of Subjects with Ulcerative OM (WHO > 1) [3]: 88% (69%, 98%)
Cum. Percent of Subjects with Severe OM (WHO > 2) [4]: 53% (32%, 77%)
Cum. Percent of Subjects with Ulcerative OM (WHO > 1) [4]: 94% (76%, 100%)
Cum. Percent of Subjects with Severe OM (WHO > 2) [5]: 59% (37%, 81%)
Cum. Percent of Subjects with Ulcerative OM (WHO > 1) [5]: 94% (76%, 100%)
Cum. Percent of Subjects with Severe OM (WHO > 2) [6]: 59% (37%, 81%)
Cum. Percent of Subjects with Ulcerative OM (WHO > 1) [6]: 94% (76%, 100%)
Cum. Percent of Subjects with Severe OM (WHO > 2) [7]: 65% (43%, 86%)
Cum. Percent of Subjects with Ulcerative OM (WHO > 1) [7]: 94% (76%, 100%)
Cum. Percent of Subjects with Severe OM (WHO > 2) [8]: 71% (49%, 89%)
Cum. Percent of Subjects with Ulcerative OM (WHO > 1) [8]: 94% (76%, 100%)
Cum. Percent of Subjects with Ulcerative OM (WHO > 1) (0.02 mg/kg, Completer Population, at 60-<65 Gy): 100% (76%, 100%)
Cum. Percent of Subjects with Severe OM (WHO > 2) (0.02 mg/kg, Completer Population, at 60->65 Gy): 78% (56%, 94%)
Cum. Percent of Subjects with Severe OM (WHO > 2) [9]: 78% (56%, 94%)
Cum. Percent of Subjects with Ulcerative OM (WHO > 1) [9]: 100% (76%, 100%)
Cum. Percent of Subjects with Ulcerative OM (WHO > 1) (0.02 mg/kg, Completer Population, at <5 Gy): 0% (0%, 0%)
Cum. Percent of Subjects with Severe OM (WHO > 2) (0.02 mg/kg, Completer Population, at <30 Gy): 35% (18%, 62%)
Cum. Percent of Subjects with Severe OM (WHO > 2) [10]: 78% (56%, 94%)
Cum. Percent of Subjects with Ulcerative OM (WHO > 1) [10]: 100% (76%, 100%)
Cumulative Dose of RT (Gy) at Initial Onset of Severe OM, Max (0.02 mg/kg, FAS population): 70 Gy
Cumulative Dose of RT (Gy) at Initial Onset of Severe OM, Mean (SD) (0.02 mg/kg, FAS population): 41 (18.0) Gy
Cumulative Dose of RT (Gy) at Initial Onset of Severe OM, Median (0.02 mg/kg, FAS population): 33 Gy
Cumulative Dose of RT (Gy) at Initial Onset of Severe OM, Min (0.02 mg/kg, FAS population): 18 Gy
Cumulative Dose of Radiation (Gy) Prior to Initial Occurrence of Severe OM (Delay to Onset of Severe OM), K-M Estimate, Mean (SE) (0.02 mg/kg, FAS population): 41 (3.8) Gy
Cumulative Dose of Radiation (Gy) Prior to Initial Occurrence of Severe OM, K-M Estimate, 25%-75% (0.02 mg/kg, FAS population): 28-62 Gy
Cumulative Dose of Radiation (Gy) Prior to Initial Occurrence of Severe OM, K-M Estimate, Median (95% CI) (0.02 mg/kg, FAS population): 34 (29, 59) Gy
Time (Days) to Initial Occurrence of Severe OM, K-M Estimate, 25%-7% (0.02 mg/kg, FAS population): 18 to 42 days
Time (Days) to Initial Occurrence of Severe OM, K-M Estimate, Mean (SE) (0.02 mg/kg, FAS population): 28 (2.7) Days
Time (Days) to Initial Occurrence of Severe OM, K-M Estimate, Median (95% CI) (0.02 mg/kg, FAS population): 24 (19, 41) Days
Cum. Percent of Subjects with Severe OM (WHO > 2) (0.02 mg/kg, FAS population, at 30-<35 Gy): 52% (32%, 75%)
Cum. Percent of Subjects with Severe OM (WHO > 2) (0.02 mg/kg, FAS population, at 35-<40 Gy): 58% (37%, 79%)
Cum. Percent of Subjects with Severe OM (WHO > 2) (0.02 mg/kg, FAS population, at 40-<45 Gy): 63% (42%, 83%)
Cum. Percent of Subjects with Severe OM (WHO > 2) (0.02 mg/kg, FAS population, at 45-<50 Gy): 63% (42%, 83%)
Cum. Percent of Subjects with Severe OM (WHO > 2) (0.02 mg/kg, FAS population, at 50-<55 Gy): 68% (47%, 87%)
Cum. Percent of Subjects with Severe OM (WHO > 2) (0.02 mg/kg, FAS population, at 55-<60 Gy): 73% (53%, 90%)
Cum. Percent of Subjects with Severe OM (WHO > 2) (0.02 mg/kg, FAS population, at 60-<65 Gy): 80% (59%, 94%)
Cum. Percent of Subjects with Severe OM (WHO > 2) (0.02 mg/kg, FAS population, at 65-<70 Gy): 80% (59%, 94%)
Cum. Percent of Subjects with Severe OM (WHO > 2) (0.02 mg/kg, FAS population, at >30 Gy): 36% (19%, 61%)
Cum. Percent of Subjects with Severe OM (WHO > 2) (0.02 mg/kg, FAS population, at ≧70 Gy): 80% (59%, 94%)
Cox Regression Analysis of Time to Initial Occurrence of Sever OM, Hazard Ratio (95% CI) [11]: 1.002 (0.433, 2.319)
Cox Regression Analysis of Time to Initial Occurrence of Ulcerative OM, Hazard Ratio (95% CI) [11]: 0.475 (0.225, 1.004)
Cox Regression Analysis of Time to Initial Occurrence of Severe OM, Hazard Ratio (95% CI) (0.10 mg/kg vs placebo, FAS population): 1.100 (0.484, 2.500)
Cumulative Dose of RT (Gy) at Initial Onset of Severe OM, Max [12]: 72 Gy
Cumulative Dose of RT (Gy) at Initial Onset of Severe OM, Mean (SD) [12]: 55 (14.8) Gy
Cumulative Dose of RT (Gy) at Initial Onset of Severe OM, Median [12]: 57 Gy
Cumulative Dose of RT (Gy) at Initial Onset of Severe OM, Min [12]: 20 Gy
Cumulative Dose of RT (Gy) at Initial Onset of Ulcerative OM, Max [12]: 68 Gy
Cumulative Dose of RT (Gy) at Initial Onset of Ulcerative OM, Mean (SD) [12]: 31 (16.6) Gy
